Assay results from patent US6583166B1, “Triazole compounds with dopamine-D3-receptor affinity” (Abbott Laboratories, priority 1999, dated 2003).

Molecular target: T1, human D3-receptor (Homo sapiens, UniProt P35462)
T1 construct: host or cells: CCL 1,3 mouse fibroblasts
Assay: D3 binding test (125iodosulpiride displacement)
Details: cloned human D3 receptor in CCL 1,3 mouse fibroblast membranes; 0.1 nM 125iodosulpiride; read-out: Ki value for the binding toward the D3 receptor
Description: Cloned human D3-receptor-expressing CCL 1,3 mouse fibroblasts, obtainable from Res. Biochemicals Internat. One Strathmore Rd., Natick, Mass. 01760-2418 USA, were used for the binding studies.
The D3-expressing cells were multiplied in RPMI-1640 containing 10% fetal calf serum (GIBCO No. 041-32400 N); 100 U of penicillin/ml and 0.2% streptomycin (GIBO BRL, Gaithersburg, Md., USA). After 48 h, the cells were washed with PBS and incubated for 5 min with 0.05% trypsin-containing PBS. After that, the solution was neutralized with medium and the cells were collected by centrifuging at 300 g. In order to lyse the cells, the pellet was washed briefly with lysis buffer (5 mM Tris-HCl, pH 7.4, containing 10% glycerol) and after that incubated, at 4° C. for 30 min, at a concentration of 10^7 cells/ml of lysis buffer. […]
For the D3-receptor binding test, the membranes were suspended in incubation buffer (50 mM Tris-HCl, pH 7.4, containing 120 mM NaCl, 5 mM KC1, 2 mM CaCl2, 2 mM MgCl2, 10 μM quinolinol, 0.1% ascorbic acid and 0.1% BSA), at a concentration of approx. 10^6 cells/250 μl of test mixture, and incubated at 30° C. […] 0.1 nM ^125iodosulpiride in the presence and absence of the test substance. The nonspecific binding was determined using 10^−6 M spiperone. […]
The Ki values were determined by means of nonlinear regression analysis using the LIGAND program. […]

T1 sequence (P35462 whole entry): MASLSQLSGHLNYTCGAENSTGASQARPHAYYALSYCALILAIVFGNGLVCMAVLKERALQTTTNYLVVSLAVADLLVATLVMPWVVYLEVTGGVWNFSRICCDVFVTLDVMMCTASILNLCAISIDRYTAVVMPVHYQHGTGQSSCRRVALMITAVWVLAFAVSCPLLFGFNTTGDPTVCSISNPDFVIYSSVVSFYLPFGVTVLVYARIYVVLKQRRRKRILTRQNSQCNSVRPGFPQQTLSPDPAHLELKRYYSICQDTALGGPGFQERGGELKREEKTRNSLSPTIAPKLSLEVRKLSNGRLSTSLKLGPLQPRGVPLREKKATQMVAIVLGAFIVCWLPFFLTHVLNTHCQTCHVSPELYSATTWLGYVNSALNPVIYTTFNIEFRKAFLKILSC

**Q.** With `Cn1c(SCCCN2CCC3c4c(Br)cccc4CCC32)nnc1-c1ccccc1` (mixture of isomers) [Example 1, (cis/trans) 9-Bromo-3-{3-[(4-methyl-5-phenyl-4H-1,2,4-triazol-3-yl)sulfanyl]propyl}-2,3,3a,4,5,9b-hexahydro-1H-benzo[e]indole] as the compound, how does the Ki read?
**A.** 50 nM
